From PubChem BioAssay (NCI)
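Results reflect a 48-hour exposure of cells in 96-well plates to compound at five concentrations. Abbreviation: GI50, concentration required for 50% inhibition of growth. TGI: total growth inhibition.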

What was measured:
Assay in all cases: NCI tumour cell line growth inhibition, 48 h
[1] = tested on: KM12 colon
[2] = tested on: OVCAR-3 ovarian
[3] = tested on: UACC-62 melanoma
[4] = tested on: U251 CNS
[5] = tested on: EKVX NSCLC
[6] = tested on: LOX IMVI melanoma
[7] = tested on: NCI-H522 lung
[8] = tested on: IGROV1 ovarian
[9] = tested on: HL-60(TB) leukemia
[10] = tested on: PC-3 prostate

Row | SMILES | TGI [1] [µM] | TGI [2] [µM] | TGI [3] [µM] | TGI [4] [µM] | TGI [5] [µM] | TGI [6] [µM] | TGI [7] [µM] | TGI [8] [µM] | TGI [9] [µM] | TGI [10] [µM] | GI50 [1] [µM] | GI50 [10] [µM] | GI50 [2] [µM] | GI50 [3] [µM] | GI50 [4] [µM] | GI50 [5] [µM] | GI50 [6] [µM] | GI50 [8] [µM] | GI50 [9] [µM] | GI50 [7] [µM]
1 | CC1=C2CCCC2=C/C(=N/Nc2ccc([N+](=O)[O-])cc2[N+](=O)[O-])CC1 | > 100 | > 100 | > 100 | > 100 | > 100 | > 100 | > 100 | > 100 | > 100 | – | – | – | – | – | – | – | – | – | – | –
2 | CCSc1[nH]c(Nc2nc(-c3ccccc3)n(-c3ccccc3)n2)c(C(N)=O)c1C(N)=O | > 10 | – | > 10 | – | > 10 | > 10 | – | > 10 | > 10 | > 10 | – | – | – | – | – | – | – | – | – | –
3 | O=c1[nH]cc(COCCO)c(=O)[nH]1 | > 100 | > 100 | > 100 | > 100 | > 100 | > 100 | > 100 | > 100 | > 100 | – | – | – | – | – | – | – | – | – | – | –
4 | O=C1c2ccccc2C2(O)c3cc4ccccc4cc3OC12O (configuration not stated) | > 100 | > 100 | > 100 | > 100 | > 100 | > 100 | > 100 | > 100 | – | – | – | – | – | – | – | – | – | – | – | –
5 | O=C(NCCCCN=c1cccccc1NCCCCNC(=O)OCc1ccccc1)OCc1ccccc1 | 32.4 | 29.5 | 37.5 | 32.1 | 81.4 | 30 | 36.8 | 54.1 | 31.3 | – | – | – | – | – | – | – | – | – | – | –
6 | O=C1CC(C[C@H](O)C2CCCCC2O)CC(=O)N1Cc1ccccc1 (some centres not stated) | > 100 | > 100 | > 100 | > 100 | > 100 | > 100 | > 100 | > 100 | > 100 | – | – | – | – | – | – | – | – | – | – | –
7 | N#Cc1c(-c2ccc(F)cc2)c(-c2ccc(F)cc2)nn(CCO)c1=O | 4.49 | 0.69 | > 77 | > 100 | > 76.6 | > 47.6 | – | > 87.4 | 0.292 | 54.7 | – | – | – | – | – | – | – | – | – | –
8 | CCOc1ccc2c(c1)[n+]([O-])c(-c1ccccc1Cl)c(N)[n+]2[O-] | > 100 | > 100 | – | > 100 | > 100 | – | 33.8 | > 100 | > 100 | – | – | – | – | – | – | – | – | – | – | –
9 | O=c1cc2oc3cc(O)c(O)cc3c(-c3ccccc3O)c-2cc1O | > 100 | > 100 | 86 | > 100 | > 100 | 34.2 | – | > 100 | 99.6 | > 100 | 30.7 | 36.1 | 9.41 | 6.25 | 4.6 | 29.2 | 4.84 | 6.73 | 33.5 | –
10 | O=C(O)CSc1n[nH]c(-c2ccccc2)n1 | > 100 | > 100 | > 100 | > 100 | > 100 | > 100 | > 100 | > 100 | > 100 | – | – | – | – | – | – | – | – | – | – | –
11 | CCOc1ccc(N2C(=O)/C(=C/c3ccc(N(CCC#N)CCC#N)cc3)N=C2c2cc([N+](=O)[O-])ccc2Cl)cc1 | 55.3 | 56.5 | 83.3 | > 100 | > 100 | 62.6 | – | – | > 100 | – | – | – | – | – | – | – | – | – | – | –
12 | NS(=O)(=O)c1ccc(N(/C=C/C(=O)C(F)(F)F)CC(=O)c2ccc(Cl)cc2)cc1 | 73.7 | > 100 | 91.6 | > 100 | > 100 | 98.9 | 72.2 | 81.7 | – | 84.1 | 24.2 | 26.4 | 31.8 | 27.7 | 33 | 54.2 | 31.2 | 22.5 | – | 24.3
13 | COc1ccc(/C(=N\NC(=O)C(N)=O)C(c2ccc(OC)cc2)C2(O)C(=O)Nc3c(Cl)cccc32)cc1 (configuration not stated) | > 100 | > 100 | > 100 | > 100 | > 100 | > 100 | – | > 100 | > 100 | – | – | – | – | – | – | – | – | – | – | –
14 | CCOC(=O)NC(=O)c1cn(CCOC(=O)NCCCCCCNC(=O)OCCn2cc(C(=O)NC(=O)OCC)c(=O)[nH]c2=O)c(=O)[nH]c1=O | > 100 | > 100 | > 100 | > 100 | > 100 | > 100 | > 100 | > 100 | > 100 | – | – | – | – | – | – | – | – | – | – | –
15 | CCOC(=O)C(C)(C)Oc1ccc2c(C)c(-c3ccc(Cl)cc3)c(=O)oc2c1 | – | > 100 | > 100 | > 100 | > 100 | > 100 | – | > 100 | > 100 | – | – | – | – | – | – | – | – | – | – | –
16 | CCC1C2C=CC(CC2)N1S(=O)(=O)c1ccc(C)cc1 (configuration not stated) | > 100 | > 100 | 49.7 | – | > 100 | 31.5 | 61.5 | – | 19.5 | – | – | – | – | – | – | – | – | – | – | –
17 | O=C(Nc1cc(Cl)ccc1Cl)c1cc2cccc(Cl)c2oc1=O | > 100 | > 100 | > 100 | > 100 | > 100 | > 100 | > 100 | > 100 | > 100 | – | – | – | – | – | – | – | – | – | – | –
18 | CC(=O)n1c2c(c(=O)n1-c1ccccc1)S(=O)CCC2 (configuration not stated) | > 100 | > 100 | > 100 | > 100 | > 100 | > 100 | 16.3 | > 100 | > 70 | – | – | – | – | – | – | – | – | – | – | –
19 | Cc1ccc(Cn2c(C)nc3c2C(=O)c2ccccc2C3=O)cc1 | > 100 | 36.6 | 16.1 | 22.8 | > 100 | 6.18 | 18.1 | > 100 | 41 | – | – | – | – | – | – | – | – | – | – | –
20 | O=C(NC(=O)c1cn(CCNCCO)c(=O)[nH]c1=O)OCc1ccccc1 | > 100 | > 100 | > 100 | > 100 | > 100 | > 100 | > 100 | > 100 | > 100 | – | – | – | – | – | – | – | – | – | – | –
21 | O=C(N/N=C1/C(=O)N(c2ccc(Cl)cc2Cl)C(=O)C(=O)C1c1nc2ccccc2o1)c1ccccc1O (configuration not stated) | > 100 | 52.4 | 48.6 | – | > 100 | – | 87.7 | > 100 | – | – | – | – | – | – | – | – | – | – | – | –
